Counter-ions that a name gives are not always drawn.
Assays:
p 388 leukemia = assay: Antitumor activity in p 388 leukemia cancer-bearing BDF1 mice; type: in vivo; details: i.v. once a day for 4 days, compound B 2 mg/Kg/day, NaHSO3 or Na2SO3 20 mg/kg/day
Protocol: By the comparative examintion of mean survival days of the mice, index of life saving was calculated by the equation below: [formula]

[1] = test system: ear vein of white rabbits; assay: Tissue injury (edema ratio) after intravenous administration into the ear vein of rabbits for 5 days; type: in vivo; details: ear vein once a day for 5 days; measured 4 days after final administration; compound B 0.16 mg/Kg/day, NaHSO3 1.6 mg/Kg/day
Protocol: The same materials as those in Example 1 were used to determine the effect thereof administered to white rabbits (male, 2.0-2.3 kg) in groups of four in the ear vein once a day for consective 5 days. The material adminitered to the respective groups was (1) physiological saline, or (2) 0.16 mg of the compound B/Kg/day, (3) 0.16 mg of the compound B+1.6 mg of NaHSO3 /Kg/day or (4) 1.6 mg of NaHSO3 /Kg/day. The solution volumes to be administered were all fixed at 0.5 ml/Kg/day which contains respective material or materials in the above dosage.
For confirmation of the effect, the appearance was observed and the thickness at the administration site was measured 4 days after the final administration to serve as the index of tissue injury.
The edema ratio was determined according to the following equation. [formula]

[2] = Acute toxicity (LD50) in ddY strain mice; type: in vivo; details: mouse, in vivo, iv, male ddY mice 18-20 g; combination with 10 times amount of NaHSO3
Protocol: (§1) The materials were administered to ddY strain mice (male, 18-20 g) intravenously to determine the LD50 (mg/Kg). […] Incidentally, NaHSO3 or Na2 SO 3 itself is a substance prescribed in Japanese Parmacopoeia and its safety has been established already.

[3] = Stability of compound B in aqueous solution of NaHSO3 or Na2SO3 by HPLC; type: physicochemical; details: 3 hours at room temperature, 0.2 mg/ml compound B, Sample: with 2.0 mg/ml NaHSO3 or Na2SO3, read-out: Ratio of remaining compound B
Protocol: It was confirmed that the stability of the compound B was not affected when an aqueous solution of NaHSO3 or Na2 SO3 was used as the dissolving medium of the compound B. In a sample of 10 ml of an aqueous solution containing 0.2 mg of the compound B and 2.0 mg of NaHSO3 or Na2 SO3 in 1 ml thereof, analysis was made on high-performance liquid chromatography just after dissolving the compound B and after standing the solution for 3 hours at room temperature, to examine the stability of the compound B. The results are as shown in Table 3.

ddY strain mice = assay: Acute toxicity (LD50) in ddY strain mice; type: in vivo; details: i.v., mice; 10 times amount of NaHSO3
Protocol: as §1

## Cc1ccc2c(c1O)NC(S(=O)O)C1CC(/C=C/C(N)=O)=CN1C2=O (stereo not shown) [Compound B, sodium salt of 5,10,11,11a-terahydro-9-hydroxy-8-methyl-5-oxo-11-sulfino-1H-pyrrolo[2,1-c][1,4]benzodiazepin-2-acrylamide]
P 388 leukemia; control 10 days
  Mean survival day: 18.0 days
P 388 leukemia; relative to physiological saline
  Index of life saving (%): 80%
[1]
  Edema ratio (%): 169.4%
[2]
  LD50: 6.23 mg/kg
[3]
  remaining at 3 h: 100%

## O=S([O-])O.[Na+] [NaHSO3, sodium hydrogensulfite, reference compound]
[1]
  Edema ratio (%): 0.0%
ddY strain mice
  Effect on acute toxicity of the compound B (in words): did not affect the acute toxicity of the compound B at all

Source: US4701325A, “Injectable aqueous solution containing hydrogensulfite and/or sulfite and anticancerous benzodiazepine compound” (priority 1983, dated 1987)
